Measurements reported in patent publication US10450316B2, “Certain protein kinase inhibitor” (Chongqing Fochon Pharmaceutical Co., Ltd., priority 2015, dated 2019).
pIC50: −log10 of the molar value.

Tested on: BE(2)-C cell
Assay: Cell proliferation assay (MTS) in BE(2)-C cells
Format: cell-based
Conditions: Homo sapiens, inhibition of BE(2)-C cell proliferation, 48 h
Outline: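 Proliferation read-out was MTS absorbance at 490 nm, with 650 nm as reference, after a 2 h MTS incubation, giving IC50 values. Before reading, BE(2)-C cells plated at 3000 per well were exposed to nine compound concentrations from 10000 down to 1.5 nM for 48 h at 37 °C, 5% CO2.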

Row | Compound | pIC50
1 | CN1CCC2(CC1)CN(Cc1ccc(Nc3ncc(F)c(-c4cc(F)c5nc6n(c5c4)[C@H](CF)CC6)n3)nc1)C2 [Example 21, (S)-5-fluoro-4-(5-fluoro-1-(fluoromethyl)-2,3-dihydro-1H-benzo[d]pyrrolo[1,2-a]imidazol-7-yl)-N-(5-((7-methyl-2,7-diazaspiro[3.5]nonan-2-yl)methyl)pyridin-2-yl)pyrimidin-2-amine] | < 7.00
2 | CCN1CCN(Cc2ccc(Nc3ncc(F)c(-c4cc(F)c5nc6n(c5c4)[C@H](COC)CC6)n3)nc2)CC1 [Example 9, (S)—N-(5-((4-ethylpiperazin-1-yl)methyl)pyridin-2-yl)-5-fluoro-4-(5-fluoro-1-(methoxymethyl)-2,3-dihydro-1H-benzo[d]pyrrolo[1,2-a]imidazol-7-yl)pyrimidin-2-amine] | < 7.00
3 | CN1C2CCC1CN(Cc1ccc(Nc3ncc(F)c(-c4cc(F)c5nc6n(c5c4)C(C)(C)CC6)n3)nc1)C2 [Example 130, 5-fluoro-4-(5-fluoro-1,1-dimethyl-2,3-dihydro-1H-benzo[d]pyrrolo[1,2-a]imidazol-7-yl)-N-(5-((8-methyl-3,8-diazabicyclo[3.2.1]octan-3-yl)methyl)pyridin-2-yl)pyrimidin-2-amine] | 7.00 to 8.00
4 | FC[C@@H]1CCc2nc3c(F)cc(-c4nc(Nc5ccc(CN6CC7CNCC7C6)cn5)ncc4F)cc3n21 (stereo partly drawn) [Example 26, 5-fluoro-4-((S)-5-fluoro-1-(fluoromethyl)-2,3-dihydro-1H-benzo[d]pyrrolo[1,2-a]imidazol-7-yl)-N-(5-((hexahydropyrrolo[3,4-c]pyrrol-2(1H)-yl)methyl)pyridin-2-yl)pyrimidin-2-amine] | < 7.00
5 | CN1C2CCC1CN(Cc1ccc(Nc3ncc(F)c(-c4cc(F)c5nc6n(c5c4)[C@H](CF)CC6)n3)nc1)C2 [Example 36, 5-fluoro-4-((5)-5-fluoro-1-(fluoromethyl)-2,3-dihydro-1H-benzo[d]pyrrolo[1,2-a]imidazol-7-yl)-N-(5-((8-methyl-3,8-diazabicyclo[3.2.1]octan-3-yl)methyl)pyridin-2-yl)pyrimidin-2-amine] | < 7.00
6 | Fc1cnc(Nc2ccc(CN3C[C@@H]4C[C@H]3CN4)cn2)nc1-c1cc(F)c2nc3n(c2c1)C1(CC3)CC1 [Example 135, N-(5-(((1S,4S)-2,5-diazabicyclo[2.2.1]heptan-2-yl)methyl)pyridin-2-yl)-5-fluoro-4-(5-fluoro-2,3-dihydrospiro[benzo[d]pyrrolo[1,2-a]imidazole-1,1′-cyclopropan]-7-yl)pyrimidin-2-amine] | < 6.00
7 | COC[C@@H]1CCc2nc3c(F)cc(-c4nc(Nc5ccc(CN6CCN(C)CC6)cn5)ncc4F)cc3n21 [Example 8, (S)-5-fluoro-4-(5-fluoro-1-(methoxymethyl)-2,3-dihydro-1H-benzo[d]pyrrolo[1,2-a]imidazol-7-yl)-N-(5-((4-methylpiperazin-1-yl)methyl)pyridin-2-yl)pyrimidin-2-amine] | < 7.00
8 | CN1CCN(Cc2ccc(Nc3ncc(F)c(-c4cc(F)c5nc6n(c5c4)[C@@H](C(F)F)CC6)n3)nc2)CC1 [Example 153, (R)-4-(1-(difluoromethyl)-5-fluoro-2,3-dihydro-1H-benzo[d]pyrrolo[1,2-a]imidazol-7-yl)-5-fluoro-N-(5-((4-methylpiperazin-1-yl)methyl)pyridin-2-yl)pyrimidin-2-amine] | < 6.00
9 | C[C@@H]1CCc2nc3c(F)cc(-c4nc(Nc5ccc(CN6CC7(CCN(C)CC7)C6)cn5)ncc4F)cc3n21 [Example 90, (R)-5-fluoro-4-(5-fluoro-1-methyl-2,3-dihydro-1H-benzo[d]pyrrolo[1,2-a]imidazol-7-yl)-N-(5-((7-methyl-2,7-diazaspiro[3.5]nonan-2-yl)methyl)pyridin-2-yl)pyrimidin-2-amine] | 7.00 to 8.00
10 | CC1(C)CCc2nc3c(F)cc(-c4cc(Nc5ncc(CN6CCNCC6)cn5)ncc4F)cc3n21 [Example 164, N-(5-fluoro-4-(5-fluoro-1,1-dimethyl-2,3-dihydro-1H-benzo[d]pyrrolo[1,2-a]imidazol-7-yl)pyridin-2-yl)-5-(piperazin-1-ylmethyl)pyrimidin-2-amine] | 7.00 to 8.00
11 | CN1CCC2(CC1)CCN(Cc1ccc(Nc3ncc(F)c(-c4cc(F)c5nc6n(c5c4)[C@H](C(F)(F)F)CC6)n3)nc1)CC2 [Example 71, (S)-5-fluoro-4-(5-fluoro-1-(trifluoromethyl)-2,3-dihydro-1H-benzo[d]pyrrolo[1,2-a]imidazol-7-yl)-N-(5-((9-methyl-3,9-diazaspiro[5.5]undecan-3-yl)methyl)pyridin-2-yl)pyrimidin-2-amine] | 7.00 to 8.00
12 | CN1CC2CN(Cc3ccc(Nc4ncc(F)c(-c5cc(F)c6nc7n(c6c5)[C@H](C(F)(F)F)CC7)n4)nc3)CC2C1 (stereo partly drawn) [Example 74, 5-fluoro-4-((S)-5-fluoro-1-(trifluoromethyl)-2,3-dihydro-1H-benzo[d]pyrrolo[1,2-a]imidazol-7-yl)-N-(5-((5-methylhexahydropyrrolo[3,4-c]pyrrol-2(1H)-yl)methyl)pyridin-2-yl)pyrimidin-2-amine] | 7.00 to 8.00
13 | Fc1cnc(Nc2ccc(CN3CCNCC3)cn2)nc1-c1cc(F)c2nc3n(c2c1)[C@H](C(F)(F)F)CC3 [Example 16, (S)-5-fluoro-4-(5-fluoro-1-(trifluoromethyl)-2,3-dihydro-1H-benzo[d]pyrrolo[1,2-a]imidazol-7-yl)-N-(5-(piperazin-1-ylmethyl)pyridin-2-yl)pyrimidin-2-amine] | 7.00 to 8.00
14 | CCN1CC2CCC(C1)N2Cc1ccc(Nc2ncc(F)c(-c3cc(F)c4nc5n(c4c3)[C@H](C(F)(F)F)CC5)n2)nc1 [Example 78, N-(5-((3-ethyl-3,8-diazabicyclo[3.2.1]octan-8-yl)methyl)pyridin-2-yl)-5-fluoro-4-((S)-5-fluoro-1-(trifluoromethyl)-2,3-dihydro-1H-benzo[d]pyrrolo [1,2-a]imidazol-7-yl)pyrimidin-2-amine] | 7.00 to 8.00
15 | Fc1cnc(Nc2ccc(CN3CCN4CCC[C@H]4C3)cn2)nc1-c1cc(F)c2nc3n(c2c1)C1(CC3)CC1 [Example 144, (S)-5-fluoro-4-(5-fluoro-2,3-dihydrospiro[benzo [d]pyrrolo[1,2-a]imidazole-1,1′-cyclopropan]-7-yl)-N-(5-((hexahydropyrrolo[1,2-a]pyrazin-2(1H)-yl)methyl)pyridin-2-yl)pyrimidin-2-amine] | 7.00 to 8.00
16 | CN1CCN(Cc2ccc(Nc3ncc(F)c(-c4cc(F)c5nc6n(c5c4)[C@H](C(F)(F)F)CC6)n3)nc2)CC1 [Example 17, (S)-5-fluoro-4-(5-fluoro-1-(trifluoromethyl)-2,3-dihydro-1H-benzo[d]pyrrolo[1,2-a]imidazol-7-yl)-N-(5-((4-methylpiperazin-1-yl)methyl)pyridin-2-yl)pyrimidin-2-amine] | 7.00 to 8.00
17 | Fc1cnc(Nc2ccc(CN3CCC4(CCNCC4)CC3)cn2)nc1-c1cc(F)c2nc3n(c2c1)[C@H](C(F)F)CC3 [Example 51, (S)-N-(5-((3,9-diazaspiro[5.5]undecan-3-yl)methyl)pyridin-2-yl)-4-(1-(difluoromethyl)-5-fluoro-2,3-dihydro-1H-benzo[d]pyrrolo[1,2-a]imidazol-7-yl)-5-fluoropyrimidin-2-amine] | < 7.00
18 | CN1CC2(CCN(Cc3ccc(Nc4ncc(F)c(-c5cc(F)c6nc7n(c6c5)[C@H](C(F)(F)F)CC7)n4)nc3)CC2)C1 [Example 65, (S)-5-fluoro-4-(5-fluoro-1-(trifluoromethyl)-2,3-dihydro-1H-benzo[d]pyrrolo[1,2-a]imidazol-7-yl)-N-(5-((2-methyl-2,7-diazaspiro[3.5]nonan-7-yl)methyl)pyridin-2-yl)pyrimidin-2-amine] | 7.00 to 8.00
19 | CCN1CCC2(CC1)CN(Cc1ccc(Nc3ncc(F)c(-c4cc(F)c5nc6n(c5c4)[C@H](C(F)F)CC6)n3)nc1)C2 [Example 44, (S)-4-(1-(difluoromethyl)-5-fluoro-2,3-dihydro-1H-benzo[d]pyrrolo[1,2-a]imidazol-7-yl)-N-(5-((7-ethyl-2,7-diazaspiro[3.5]nonan-2-yl)methyl)pyridin-2-yl)-5-fluoropyrimidin-2-amine] | 7.00 to 8.00
20 | CN1CC2CCC(C1)N2Cc1ccc(Nc2cc(-c3cnc4nc5n(c4c3)C(C)(C)CC5)c(F)cn2)nc1 [Example 168, 4-(6,6-dimethyl-7,8-dihydro-6H-pyrrolo[1′,2′:1,2]imidazo[4,5-b]pyridin-3-yl)-5-fluoro-N-(5-((3-methyl-3,8-diazabicyclo[3.2.1]octan-8-yl)methyl)pyridin-2-yl)pyridin-2-amine] | < 7.00
21 | Fc1cnc(Nc2ccc(CN3CCC4(CC3)CNC4)cn2)nc1-c1cc(F)c2nc3n(c2c1)[C@H](C(F)(F)F)CC3 [Example 64, (S)-N-(5-((2,7-diazaspiro[3.5]nonan-7-yl)methyl)pyridin-2-yl)-5-fluoro-4-(5-fluoro-1-(trifluoro-methyl)-2,3-dihydro-1H-benzo[d]pyrrolo[1,2-a]imidazol-7-yl)pyrimidin-2-amine] | < 7.00
22 | CN1CC2CCC(C1)N2Cc1ccc(Nc2ncc(F)c(-c3cc(F)c4nc5n(c4c3)[C@H](C(F)F)CC5)n2)nc1 [Example 55, 4-((S)-1-(difluoromethyl)-5-fluoro-2,3-dihydro-1H-benzo[d]pyrrolo[1,2-a]imidazol-7-yl)-5-fluoro-N-(5-((3-methyl-3,8-diazabicyclo[3.2.1]octan-8-yl)methyl)pyridin-2-yl)pyrimidin-2-amine] | 7.00 to 8.00
23 | Fc1cnc(Nc2ccc(CN3CC4CNCC4C3)cn2)nc1-c1cc(F)c2nc3n(c2c1)[C@H](C(F)F)CC3 (stereo partly drawn) [Example 48, 4-((S)-1-(difluoromethyl)-5-fluoro-2,3-dihydro-1H-benzo[d]pyrrolo[1,2-a]imidazol-7-yl)-5-fluoro-N-(5-((hexahydropyrrolo[3,4-c]pyrrol-2(1H)-yl)methyl)pyridin-2-yl)pyrimidin-2-amine] | < 7.00
24 | NC1C2CN(Cc3ccc(Nc4ncc(F)c(-c5cc(F)c6nc7n(c6c5)C5(CC7)CC5)n4)nc3)CC12 (stereo not drawn) [Example 147, 3-((6-((5-fluoro-4-(5-fluoro-2,3-dihydrospiro [benzo[d]pyrrolo[1,2-a]imidazole-1,1′-cyclo-propan]-7-yl)pyrimidin-2-yl)amino)pyridin-3-yl)methyl)-3-azabicyclo[3.1.0]hexan-6-amine] | < 6.00
